Tests used:
Conditions in all cases: Homo sapiens
[1] = Compound was tested for cytotoxicity against paclitaxel resistant KB-V1 cell line expressing P-glycoprotein
[2] = test system: KB; assay: Compound was tested for cytotoxicity against paclitaxel resistant KB-8-5 cell line expressing P-glycoprotein; assay type: functional, cell-based
[3] = test system: KB 3-1; assay: Compound was tested for cytotoxicity against paclitaxel sensitive KB-3-1 cell line; assay type: functional, cell-based

Compound	IC50 [1] [nM]	IC50 [2] [nM]	IC50 [3] [nM]
CN[C@H](C(=O)N[C@H](C(=O)N(C)[C@H](/C=C(\C)C(=O)N1CC=C[C@@H]1C(=O)OC)C(C)C)C(C)(C)C)C(C)(C)c1ccccc1	272	17	3.5
CN[C@H](C(=O)N[C@H](C(=O)N(C)[C@H](/C=C(\C)C(=O)N1CCC[C@@H]1C(=O)O)C(C)C)C(C)(C)C)C(C)(C)c1cccc(C)c1	> 3000	599	70
CN[C@H](C(=O)N[C@H](C(=O)N(C)[C@H](/C=C(\C)C(=O)N1CCC[C@@H]1C(=O)OC)C(C)C)C(C)(C)C)C(C)(C)c1cccc(Cl)c1	362	6.2	2.5
CN[C@H](C(=O)N[C@H](C(=O)N(C)[C@H](/C=C(\C)C(=O)CO)C(C)C)C(C)(C)C)C(C)(C)c1ccccc1	1130	68	43
CN[C@H](C(=O)N[C@H](C(=O)N(C)[C@H](/C=C(\C)C(=O)c1ccccc1)C(C)C)C(C)(C)C)C(C)(C)c1ccccc1	1800	1330	725
CN[C@H](C(=O)N[C@H](C(=O)N(C)[C@H](/C=C(\C)C(=O)c1nccs1)C(C)C)C(C)(C)C)C(C)(C)c1ccccc1	1790	565	582
CN[C@H](C(=O)N[C@H](C(=O)N(C)[C@H](/C=C(\C)CO)C(C)C)C(C)(C)C)C(C)(C)c1ccccc1	1590	447	454
CN[C@H](C(=O)N[C@H](C(=O)N(C)[C@H](/C=C(\C)C(=O)N1CCC[C@@H]1C(=O)OC)C(C)C)C(C)(C)C)C(C)(C)c1ccccc1	291	7.3	1.5
CN[C@H](C(=O)N[C@H](C(=O)N(C)[C@H](/C=C(\C)C(C)O)C(C)C)C(C)(C)C)C(C)(C)c1ccccc1 (some centres not stated)	1460	172	63
CN[C@H](C(=O)N[C@H](C(=O)N(C)[C@H](/C=C(\C)C(=O)N1CCC[C@H]1C(=O)O)C(C)C)C(C)(C)C)C(C)(C)c1ccccc1	> 3000	1580	515
CN[C@H](C(=O)N[C@H](C(=O)N(C)[C@H](C(=O)O)C(C)C)C(C)(C)C)C(C)(C)c1ccccc1	> 3000	> 3000	> 3000
CN[C@H](C(=O)N[C@H](C(=O)N(C)[C@H](/C=C(\C)C(=O)N1CCCC[C@@H]1C(=O)O)C(C)C)C(C)(C)C)C(C)(C)c1ccccc1	> 3000	270	64
CN[C@H](C(=O)N[C@H](C(=O)N(C)[C@H](/C=C/C(=O)O)C(C)C)C(C)(C)C)C(C)(C)c1ccccc1	> 3000	479	191
CN[C@H](C(=O)N[C@H](C(=O)N(C)[C@H](/C=C(\C)C(=O)N1CCC[C@@H]1C(=O)O)C(C)C)C(C)(C)C)C(C)(C)c1ccc(C)c(C)c1	> 3000	519	74
CN[C@H](C(=O)N[C@H](C(=O)N(C)[C@H](/C=C(\C)C(=O)N1CCC[C@@H]1C(=O)O)C(C)C)C(C)(C)C)C(C)(C)c1cccc(Cl)c1	> 3000	180	62
CN[C@H](C(=O)N[C@H](C(=O)N(C)[C@H](/C=C(\C)c1ccccc1)C(C)C)C(C)(C)C)C(C)(C)c1ccccc1	> 3000	> 3000	> 3000
CN[C@H](C(=O)N[C@H](C(=O)N(C)[C@H](/C=C1/C(=O)NC(=O)N1C)C(C)C)C(C)(C)C)C(C)(C)c1ccccc1	230	9.9	5.1
CN[C@H](C(=O)N[C@H](C(=O)N(C)[C@H](/C=C(\C)C(=O)N1CCC[C@@H]1C(=O)OC)C(C)C)C(C)(C)C)C(C)(C)c1cccc(C)c1	275	6.2	1.6
CN[C@H](C(=O)N[C@H](C(=O)N(C)[C@H](/C=C(\C)C(O)c1nccs1)C(C)C)C(C)(C)C)C(C)(C)c1ccccc1 (some centres not stated)	364	19	13
CN[C@H](C(=O)N[C@H](C(=O)N(C)[C@H](/C=C(/C)C(=O)O)C(C)C)C(C)(C)C)C(C)(C)c1ccccc1	2630	58	28

Compound	IC50 [1] [nM]	IC50 [2] [nM]	IC50 [3] [nM]
CN[C@H](C(=O)N[C@H](C(=O)N(C)[C@H](/C=C1\NC(=O)NC1=O)C(C)C)C(C)(C)C)C(C)(C)c1ccccc1	> 3000	1740	1070
CN[C@H](C(=O)N[C@H](C(=O)N(C)[C@H](/C=C(\C)C(C)=O)C(C)C)C(C)(C)C)C(C)(C)c1ccccc1	2360	664	403
CN[C@H](C(=O)N[C@H](C(=O)N(C)[C@H](/C=C(\C)C(=O)c1ncc[nH]1)C(C)C)C(C)(C)C)C(C)(C)c1ccccc1	> 3000	1360	218
CN[C@H](C(=O)N[C@H](C(=O)N(C)[C@H](/C=C(\C)C(=O)N1CCCC[C@@H]1C(=O)OC)C(C)C)C(C)(C)C)C(C)(C)c1ccccc1	150	17	5.2
CN[C@H](C(=O)N[C@H](C(=O)N(C)[C@H](/C=C(\C)C(=O)N1CCC[C@@H]1C(=O)NCCc1ccccc1)C(C)C)C(C)(C)C)C(C)(C)c1ccccc1	1670	21	6.4
CN[C@H](C(=O)N[C@H](C(=O)N(C)[C@H](/C=C(\C)C=O)C(C)C)C(C)(C)C)C(C)(C)c1ccccc1	1590	447	454
CN[C@H](C(=O)N[C@H](C(=O)N(C)[C@H](/C=C(\C)C(=O)N1CC(O)C[C@@H]1C(=O)OC)C(C)C)C(C)(C)C)C(C)(C)c1ccccc1 (some centres not stated)	> 3000	116	3.5
CN[C@H](C(=O)N[C@H](C(=O)N(C)[C@H](/C=C(\C)[C@H](O)c1ccccc1)C(C)C)C(C)(C)C)C(C)(C)c1ccccc1	632	186	124
CN[C@H](C(=O)N[C@H](C(=O)N(C)[C@H](/C=C(C)/C=C(\C)C(=O)O)C(C)C)C(C)(C)C)C(C)(C)c1ccccc1	1580	53	27
CN[C@H](C(=O)N[C@H](C(=O)N(C)[C@H](C(=O)N1CCC[C@@H]1C(=O)O)C(C)C)C(C)(C)C)C(C)(C)c1ccccc1	> 3000	> 3000	> 3000
CN[C@H](C(=O)N[C@H](C(=O)N(C)[C@H](/C=C(\C)C(=O)N1CCC[C@@H]1C(=O)OC)C(C)C)C(C)(C)C)C(C)(C)C1CCCCC1	493	16	3.7
CN[C@H](C(=O)N[C@H](C(=O)N(C)[C@H](/C=C(\C)C(=O)N1CC=C[C@@H]1C(=O)O)C(C)C)C(C)(C)C)C(C)(C)c1ccccc1	> 3000	184	58
CN[C@H](C(=O)N[C@H](C(=O)N(C)[C@H](/C=C(\C)C(=O)N1CCC[C@@H]1C(=O)OC)C(C)C)C(C)(C)C)C(C)(C)c1ccc(C)c(C)c1	363	15	1.9
CN[C@H](C(=O)N[C@H](C(=O)N(C)[C@H](/C=C(\C)C(=O)N1CC(O)C[C@@H]1C(=O)O)C(C)C)C(C)(C)C)C(C)(C)c1ccccc1 (some centres not stated)	> 3000	1850	184
CN[C@H](C(=O)N[C@H](C(=O)N(C)[C@H](/C=C(\C)C(=O)N1CCC[C@H]1C(=O)OC)C(C)C)C(C)(C)C)C(C)(C)c1ccccc1	1100	51	16
CN[C@H](C(=O)N[C@H](C(=O)N(C)[C@H](/C=C/c1nn[nH]n1)C(C)C)C(C)(C)C)C(C)(C)c1ccccc1	> 3000	1820	1150
CN[C@H](C(=O)N[C@H](C(=O)N(C)[C@H](/C=C(\C)C(=O)N1CCC[C@@H]1C(=O)O)C(C)C)C(C)(C)C)C(C)(C)c1ccccc1	> 3000	205	62
CN[C@H](C(=O)N[C@H](C(=O)N(C)[C@H](/C=C(\C)C(O)c1ccccc1)C(C)C)C(C)(C)C)C(C)(C)c1ccccc1 (single isomer, unassigned)	190	22	16
CN[C@H](C(=O)N[C@H](C(=O)N(C)[C@H](/C=C(\C)C(=O)O)C(C)C)C(C)(C)C)C(C)(C)c1ccccc1 [TALTOBULIN]	77	2.3	0.96

Source: ChEMBL document CHEMBL1137171, “D-piece modifications of the hemiasterlin analog HTI-286 produce potent tubulin inhibitors” (Bioorg Med Chem Lett, 2004)
